From patent US11058688B2, “Imidazopiperazine inhibitors of transcription activating proteins” (Board of Regents, The University of Texas System, priority 2018, dated 2021) come the findings set out here.

pIC50: −log10 of the molar value.

The target in one assay is BRD4(49-170) bromodomain (Homo sapiens (Human), UniProt O60885). Nature of the assay: BRD4 AlphaScreen Assay. Conditions: binding to biotin-H4(1-21) Ac-K5/8/12/16 peptide. In short, it runs like this:
(§1)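 IC50 values derived by variable-slope dose-response fit between negative and DMSO control signals. AlphaScreen signal reports bromodomain association with an H4(1-21) peptide acetylated at K5, K8, K12 and K16.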

The target of assay [1] is GST-CBP(1081-1197) bromodomain (Homo sapiens (Human), UniProt Q92793). Nature of the assay: CBP AlphaScreen Assay. Conditions: binding to biotin-H4(1-21) Ac-K5/8/12/16 peptide. In short, it runs like this:
as §1
A general note: Alpha assays give light when donor and acceptor beads are brought close together.

GST-CBP(1081-1197) bromodomain, sequence (Q92793 1081-1197): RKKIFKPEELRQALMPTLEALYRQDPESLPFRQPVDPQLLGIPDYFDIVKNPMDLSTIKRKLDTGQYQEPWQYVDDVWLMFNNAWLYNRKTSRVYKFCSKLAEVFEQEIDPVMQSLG

On to `CNC(=O)N1CCn2c(C3CC3)nc(-c3cccc4cc(-c5cnn(C)c5)ncc34)c2C1` [Example 124, 3-cyclopropyl-N-methyl-1-(3-(1-methyl-1H-pyrazol-4-yl)isoquinolin-8-yl)-5,6-dihydroimidazo[1,5-a]pyrazine-7(8H)-carboxamide], for which the pIC50 (usually the negative decadic logarithm of the IC50, by convention in mol/L) at BRD4(49-170) bromodomain is 5.19; in assay [1] it was 8.70.

With `CNC(=O)N1Cc2c(-c3cccc4cc(-c5cnn(C)c5)ncc34)nc(C3CC3)n2CC1C` (stereo not drawn) [Example 125, 3-cyclopropyl-N,6-dimethyl-1-(3-(1-methyl-1H-pyrazol-4-yl)isoquinolin-8-yl)-5,6-dihydroimidazo[1,5-a]pyrazine-7(8H)-carboxamide], the pIC50 at BRD4(49-170) bromodomain was under 5.00; in assay [1], 7.72.

For `CNC(=O)N1Cc2c(-c3cccc4cc(-c5cnn(C)c5)ncc34)nc(C3CC3)n2C(C)C1` (stereo not drawn) [Example 126, 3-cyclopropyl-N,5-dimethyl-1-(3-(1-methyl-1H-pyrazol-4-yl)isoquinolin-8-yl)-5,6-dihydroimidazo[1,5-a]pyrazine-7(8H)-carboxamide], the pIC50 on BRD4(49-170) bromodomain was 4.77; in assay [1] it was 7.41.
